Source: patent EP1285920A1, “C10 Ester sustituted taxanes as antitumor agents” (Florida State University Research Foundation, Inc., priority 2001, dated 2003)
Where two headings read alike, the source gives them in different places.

Experiments:
[1] = tested on: HCT116; assay: In Vitro cytotoxicity measured by the cell colony formation assay; type: cell-based, human; conditions: Homo sapiens, HCT-116; read-out: IN VITRO ID 50 HCT116
Procedure, shortened: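 Four hundred cells per dish in McCoy's 5a medium with 10% FBS were allowed to attach for 5 h at 37 °C. They were then exposed to compound for 72 h at 37 °C, added as a 10× stock made fresh in medium. After HBSS rinsing and refeeding, colonies were counted after 7 days.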

[2] = tested on: HCT116 carcinoma; conditions: for Toxic Deaths: mg/kg: Taxol 36 (split doses), 0503 72.6, 0536 49, 0663 159, 0670 123, 0687 159, 0706 108, 0908 159, 0947 76.9, 0951 72.6, 0983 72.6, 0999 49, 1003 49, 1011 108
Procedure: Antitumor compounds were formulated for an i.v. dosing regime and were prepared in the following vehicle: 5% ethanol, 5% Cremophor and 90% isotonic saline.
(§1) The antitumor compounds were given intravenously in a single maximum tolerated dose (MTD) appropriate for each compound. […] The MTDs for the antitumor compounds were calculated from earlier single dose data for mice receiving i.v. administration of these compounds. All vehicle control animals in the split dosing regimes were dosed twice intravenously with half of the total volume being given separated by one hour. The study was terminated on Day 60.
A complete response is obtained if the tumor is not palpable at the end of the study.

[3] = tested on: MX-1 carcinoma; conditions: for Toxic Deaths: mg/kg: Taxol 36 (split dose), 0503 72.6, 0536 49, 0663 159, 0670 123, 0687 159, 0706 108, 0908 159, 0947 76.9, 0951 72.6, 0983 67.4, 0999 49, 1003 49, 1011 108
Procedure: Thirteen antitumor compounds were formulated for an i.v. dosing regime (single i.v. bolus, qd x 1 schedule) prepared in the following vehicle: 5% ethanol, 5% Cremophor and 90% isotonic saline.
as §1, with “half” for “half of”
A complete response is obtained if the tumor is not palpable at the end of the study. […]

[4] = tested on: A2780 ovarian carcinoma; conditions: for MDS: i.v. qd x 1 (compounds estimated MTD; Taxol 24 mg/kg split; Taxotere 70 mg/kg), days until tumor 2.0 g, ended Day 60
Procedure: Dosing was initiated on Day 1. […] Taxotere was given i.v. on a qd x 1 schedule at a dose of 70 mg/kg. […] The study was terminated on Day 60. Treatment groups are detailed in Table 7.

[5] = number of 5 mice, i.v. qd x 1 at MTD, Day 60, doses as in E3
[6] = number of 5 mice, i.v. qd x 1 at MTD, Day 60
[7] = number of 6 mice, i.v. qd x 1 at MTD, Day 60, doses as in E17
[8] = number of 6 mice, i.v. qd x 1 at MTD, Day 60
[9] = A2780, i.v. qd x 1, five mice per group
[10] = number of mice, i.v. qd x 1 at estimated MTD (Taxol 24 mg/kg, Taxotere 70 mg/kg, 0983 72.6 mg/kg), 5 mice/group (Taxotere 6)
[11] = number of mice, i.v. qd x 1 at estimated MTD (Taxol 24 mg/kg, Taxotere 70 mg/kg, 0983 72.6 mg/kg), 5 mice/group (Taxotere 6), Day 60
[12] = i.v. qd x 1 at MTD, 5 mice/group, Day 60, doses as in E3
[13] = number of 5 mice, tumor did not reach 2.0 g by end of study, i.v. qd x 1 at MTD, Day 60, doses as in E3
[14] = number of 5 mice, tumor not palpable at end of study, i.v. qd x 1 at MTD, Day 60, doses as in E3
[15] = number of 5 mice, tumor smaller than on Day 1, i.v. qd x 1 at MTD, Day 60, doses as in E3
[16] = i.v. qd x 1 at MTD, 6 mice/group, Day 60, doses as in E17
[17] = number of 6 mice, tumor did not reach 2.0 g by end of study, i.v. qd x 1 at MTD, Day 60, doses as in E17
[18] = number of 6 mice, tumor not palpable at end of study, i.v. qd x 1 at MTD, Day 60, doses as in E17
[19] = number of 6 mice, tumor smaller than on Day 1, i.v. qd x 1 at MTD, Day 60, doses as in E17
[20] = mean days of survival until neoplasm reached 2.0 g, i.v. qd x 1 at estimated MTD (Taxol 24 mg/kg, Taxotere 70 mg/kg, 0983 72.6 mg/kg), 5 mice/group (Taxotere 6), terminated Day 60
[21] = tumor scoring system, i.v. qd x 1 at estimated MTD (Taxol 24 mg/kg, Taxotere 70 mg/kg, 0983 72.6 mg/kg), 5 mice/group (Taxotere 6)

CCC(=O)O[C@H]1C(=O)[C@@]2(C)[C@H]([C@H](OC(=O)c3ccccc3)[C@]3(O)C[C@H](OC(=O)[C@H](O)[C@@H](NC(=O)c4ccccc4)c4ccco4)C(C)=C1C3(C)C)[C@]1(OC(C)=O)CO[C@@H]1C[C@@H]2O [Compound 0663]
IC50 [1]: < 1 nM
Partial Response ([2]; iv): 2
Complete Response ([2]; iv, 1440 h): 2
Mean Score ([2]; iv, 1440 h): 7.6 ± 1.9
Stable Disease ([2]; iv, 1440 h): 0
Survivors [2, 5]: 4
Toxic Deaths [2, 6]: 1
Partial Response ([3]; iv): 0
Complete Response ([3]; iv, 1440 h): 4
Mean Score ([3]; iv, 1440 h): 7.7 ± 1.5
Stable Disease ([3]; iv, 1440 h): 1
Survivors [3, 7]: 5
Toxic Deaths [3, 8]: 0
survival extension compared to Group 1 controls ([4]; A2780, i.v. qd x 1): 214%
total response rate [4, 9]: at least 20%

CCCC(=O)O[C@H]1C(=O)[C@@]2(C)[C@H]([C@H](OC(=O)c3ccccc3)[C@]3(O)C[C@H](OC(=O)[C@H](O)[C@H](C=C(C)C)NC(=O)OC(C)(C)C)C(C)=C1C3(C)C)[C@]1(OC(C)=O)CO[C@@H]1C[C@@H]2O [Compound 0947]
IC50 [1]: < 1 nM
Partial Response ([2]; iv): 4
Complete Response ([2]; iv, 1440 h): 1
Mean Score ([2]; iv, 1440 h): 9.2 ± 0.2
Stable Disease ([2]; iv, 1440 h): 0
Survivors [2, 5]: 5
Toxic Deaths [2, 6]: 0
Partial Response ([3]; iv): 0
Complete Response ([3]; iv, 1440 h): 3
Mean Score ([3]; iv, 1440 h): 5.5 ± 2.1
Stable Disease ([3]; iv, 1440 h): 0
Survivors [3, 7]: 3
Toxic Deaths [3, 8]: 2
partial responses [4, 9]: 2
total response rate [4, 9]: at least 20%
Mean Score ([4]; iv, 72.6 mg/kg): 4.8 ± 1.8
Complete Response ([4]; iv, 72.6 mg/kg, 1440 h): 0
MDS (n) ([4]; iv, 72.6 mg/kg, 1440 h): 32.7 ± 5.4 (2) days
Partial Respons ([4]; iv, 72.6 mg/kg, 1440 h): 2
Stable Disease ([4]; iv, 72.6 mg/kg, 1440 h): 0
Toxic Deaths [4, 10]: 1
Survivors [4, 11]: 2

CCC(=O)OC1C(=O)C2(C)C(O)CC3OCC3(OC(C)=O)C2C(OC(=O)c2ccccc2)C2(O)CC(OC(=O)C(O)C(NC(=O)c3ccccc3)c3cccs3)C(C)=C1C2(C)C (stereo not drawn) [Compound 0687]
Survivors [2, 5]: 5
Survivors [3, 7]: 5
Survivors [4, 11]: 0

CCCC(=O)O[C@H]1C(=O)[C@@]2(C)[C@H]([C@H](OC(=O)c3ccccc3)[C@]3(O)C[C@H](OC(=O)[C@H](O)[C@@H](NC(=O)OC(C)(C)C)c4ccoc4)C(C)=C1C3(C)C)[C@]1(OC(C)=O)CO[C@@H]1C[C@@H]2O [Compound 0999]
IC50 [1]: < 1 nM
Mean Score [2, 12]: 9.2 ± 0.2
Stable Disease [2, 13]: 0
Complete Response [2, 14]: 1
Partial Response [2, 15]: 4
Survivors [2, 5]: 5
Toxic Deaths [2, 6]: 0
Mean Score [3, 16]: 8.2 ± 1.2
Stable Disease [3, 17]: 0
Complete Response [3, 18]: 4
Partial Response [3, 19]: 1
Survivors [3, 7]: 5
Toxic Deaths [3, 8]: 0
total response rate [4, 9]: at least 20%

CC(=O)O[C@@]12CO[C@@H]1C[C@H](O)[C@@]1(C)C(=O)[C@H](OC(=O)C3CC3)C3=C(C)[C@@H](OC(=O)[C@H](O)[C@@H](NC(=O)c4ccccc4)c4ccco4)C[C@@](O)([C@@H](OC(=O)c4ccccc4)[C@H]21)C3(C)C [Compound 0908]
IC50 [1]: < 1 nM
Mean Score [2, 12]: 9.2 ± 0.2
Stable Disease [2, 13]: 0
Complete Response [2, 14]: 1
Partial Response [2, 15]: 4
Survivors [2, 5]: 5
Toxic Deaths [2, 6]: 0
treated animals with durable complete responses and partial responses ([3]; MX-1, single i.v. MTD): 100%
Mean Score [3, 16]: 9.7 ± 0.3
Stable Disease [3, 17]: 0
Complete Response [3, 18]: 5
Partial Response [3, 19]: 1
Survivors [3, 7]: 6
Toxic Deaths [3, 8]: 0
survival extension compared to Group 1 controls ([4]; A2780, i.v. qd x 1): 268%
MDS ([4]; A2780): 43.1 days
Toxic Deaths [4, 9]: one
total response rate [4, 9]: at least 20%
MDS (n) [4, 20]: 43.1 ± 8.0 (2) days
Toxic Deaths [4, 10]: 1
Complete Response [4, 11]: 0
Partial Respons [4, 11]: 1
Stable Disease [4, 11]: 1
Survivors [4, 11]: 2
Mean Score [4, 21]: 3.8 ± 1.5

CCC(=O)O[C@H]1C(=O)[C@@]2(C)[C@H]([C@H](OC(=O)c3ccccc3)[C@]3(O)C[C@H](OC(=O)[C@H](O)[C@@H](NC(=O)OC(C)(C)C)c4ccco4)C(C)=C1C3(C)C)[C@]1(OC(C)=O)CO[C@@H]1C[C@@H]2O [Compound 0536]
IC50 [1]: < 1 nM
Mean Score [2, 12]: 9.2 ± 0.2
Stable Disease [2, 13]: 0
Complete Response [2, 14]: 1
Partial Response [2, 15]: 4
Survivors [2, 5]: 5
Toxic Deaths [2, 6]: 0
antitumor activity / tumor response ([3]; MX-1, i.v. qd x 1, Day 60): complete and durable tumor regressions in all the treated mice
Mean Score [3, 16]: 6.7 ± 2.1
Stable Disease [3, 17]: 0
Complete Response [3, 18]: 4
Partial Response [3, 19]: 0
Survivors [3, 7]: 4
Toxic Deaths [3, 8]: 2
antitumor activity ([4]; A2780, i.v. qd x 1): did not cause any complete responses, partial responses, or cases of stable disease
MDS ([4]; A2780): 42.6 days
MDS (n) [4, 20]: 42.6 ± 3.3 (5) days
Toxic Deaths [4, 10]: 0
Complete Response [4, 11]: 0
Partial Respons [4, 11]: 0
Stable Disease [4, 11]: 0
Survivors [4, 11]: 0
Mean Score [4, 21]: 3 ± 0
